Laboratory results as given in US10221163B2 (priority 2015, dated 2019).
Where two headings read alike, the source gives them in different places.

What was measured:
[1] = target: IMP-1 (Serratia marcescens, UniProt P52699); assay: biochemical; format: biochemical; details: fluorescence assay, CCF2-FA substrate, 2 pM enzyme, 2 hours at 25° C.; read-out: IMP-1 IC50
Summary of the method: (§1)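 Fluorescence assay of metallo-β-lactamase activity using CCF2-FA, a cephalosporin-linked 7-hydroxycoumarin–fluorescein substrate. Inhibitor, enzyme and substrate were incubated together for 2 hours at 25° C. IC50 came from a 4-parameter fit of inhibition versus inhibitor concentration.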

[2] = target: NDM-1 (Klebsiella pneumoniae, UniProt C7C422); assay: biochemical; format: biochemical; details: fluorescence assay, CCF2-FA substrate, 1 pM enzyme, 2 hours at 25° C.; read-out: NDM-1 IC50
Summary of the method: as §1

[3] = target: VIM-1 (Pseudomonas aeruginosa (strain ATCC 15692 / DSM 22644 / CIP 104116 / JCM 14847 / LMG 12228 / 1C / PRS 101 / PAO1), UniProt A0A0F7KYQ8); assay: biochemical; details: CCF2-FA substrate, 30 pM enzyme, 2 hours at 25° C.
Summary of the method: as §1

[4] = tested on: Escherichia coli expressing NDM-1 (CLB30005, CLB30016); format: cell-based; details: NDM-1 strain, with imipenem 1 μg/ml, 95% inhibition of growth
Summary of the method: (§2)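 Clinical strains grown overnight on blood agar at 35°C, colonies suspended in saline, diluted 1:100 into 1.1×CAMHB. Test compound titrated with imipenem at 1 μg/ml; incubated 22–24 h at 35°C, growth read by absorbance.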

[5] = tested on: Klebsiella pneumoniae expressing VIM-1 (IHMA599644); format: cell-based; details: VIM-1 strain IHMA599644, with imipenem 1 μg/ml, 95% inhibition of growth
Summary of the method: as §2

[6] = tested on: Serratia marcescens expressing IMP-1 (CL5741); format: cell-based; details: IMP-1 strain CL5741, with imipenem 1 μg/ml, 95% inhibition of growth
Summary of the method: as §2

[7] = tested on: Pseudomonas aeruginosa efflux+ (MB9798), IMP-1; format: cell-based; details: concentration restoring susceptibility to imipenem at 2 μg/mL in the presence of a class A, C, D serine β-lactamase inhibitor closely related to relebactam
Summary of the method: (§3)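 Steps: add fixed imipenem and/or ceftazidime (usually CLSI breakpoint) and fixed AmpC-directed class A/C inhibitor to microbroth MIC wells; titrate MBL inhibitor; record concentration regaining susceptibility for each PAO1-derived strain; divide efflux+ by efflux− value.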

[8] = tested on: Pseudomonas aeruginosa efflux− (MB9799), IMP-1; format: cell-based; details: concentration restoring susceptibility to imipenem at 2 μg/mL in the presence of a class A, C, D serine β-lactamase inhibitor closely related to relebactam
Summary of the method: as §3

[9] = tested on: Pseudomonas aeruginosa MB9798 vs MB9799; details: ratio MITC95 PA_9798/MITC95 PA_9799
Summary of the method: as §3

[10] = fluorescence assay, read-out: VIM-1 IC50

Sequence of IMP-1 (P52699 whole entry, looked up, species assumed): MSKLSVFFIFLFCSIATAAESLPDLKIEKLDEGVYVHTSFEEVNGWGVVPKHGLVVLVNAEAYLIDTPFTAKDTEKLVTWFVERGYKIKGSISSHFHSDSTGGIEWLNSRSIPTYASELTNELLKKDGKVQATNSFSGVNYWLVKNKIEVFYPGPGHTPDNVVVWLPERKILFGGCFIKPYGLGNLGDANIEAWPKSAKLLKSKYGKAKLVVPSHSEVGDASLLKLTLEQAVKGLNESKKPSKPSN
Sequence of NDM-1 (C7C422 whole entry, looked up, species assumed): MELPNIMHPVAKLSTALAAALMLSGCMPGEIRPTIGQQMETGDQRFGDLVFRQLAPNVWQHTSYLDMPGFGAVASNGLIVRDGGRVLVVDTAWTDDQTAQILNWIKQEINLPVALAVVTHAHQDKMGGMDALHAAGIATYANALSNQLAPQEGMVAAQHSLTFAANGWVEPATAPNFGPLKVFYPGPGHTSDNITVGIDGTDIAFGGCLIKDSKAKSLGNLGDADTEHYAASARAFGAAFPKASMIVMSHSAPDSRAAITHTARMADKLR

Compound | IC50 [1] | IC50 [2] | IC50 [3, 10] | Escherichia coli MITC95 [4] | Klebsiella pneumoniae MITC95 [5] | Serratia marcescens MITC95 [6] | P. aeruginosa expressing IMP-1, efflux + (MB9798) MITC95 [7] | P. aeruginosa expressing IMP-1, efflux − (MB9799) MITC95 [8] | Efflux ratio [9] | IC50 ([3]; VIM-1 IC50, fluorescence assay)
NCc1nc2cc(-c3ccc(S(=O)(=O)N[C@@H]4CCNC4)c(S(N)(=O)=O)c3-c3nn[nH]n3)ccc2[nH]1 [Example 274, (R)-4-(2-(aminomethyl)-1H-benzo[d]imidazol-5-yl)-N1-(pyrrolidin-3-yl)-3-(2H -tetrazol-5-yl)benzene-1,2-disulfonamide] | 0.486 nM | 0.0833 nM | 0.102 nM | 0.7813 µM | 1.563 µM | 1.563 µM | 0.7813 µM | 0.7813 µM | 1.00 | 
NCc1nc2cc(-c3ccc(S(=O)(=O)N[C@@H]4CCNC4)c(S(N)(=O)=O)c3-c3nn[nH]n3)ccc2s1 [Example 275, (R)-4-(2-(aminomethyl)benzo[d]thiazol-5-yl)-N^1-(pyrrolidin-3-yl)-3-(2H-tetrazol-5-yl)benzene-1,2-disulfonamide] | 0.171 nM | 0.0633 nM |  | 0.7813 µM | 1.563 µM | 0.7813 µM | 0.7813 µM | 0.7813 µM | 1.00 | 0.0902 nM
NCc1nc2c(-c3ccc(S(=O)(=O)N[C@@H]4CCNC4)c(S(N)(=O)=O)c3-c3nn[nH]n3)cccc2s1 [Example 276, (R)-4-(2-(aminomethyl)benzo[d]thiazol-4-yl)-N1-(pyrrolidin-3-yl)-3-(2H-tetrazol-5-yl)benzene-1,2-disulfonamide] | 0.542 nM | 0.0561 nM |  | 1.172 µM | 0.7813 µM | 0.7813 µM | 0.7813 µM | 0.7813 µM | 1.00 | 0.0881 nM
Nc1cccc(-c2ccc(S(=O)(=O)N[C@@H]3CCNC3)c(S(N)(=O)=O)c2-c2nn[nH]n2)n1 [Example 277, (R)-4-(6-aminopyridin-2-yl)-N1-(pyrrolidin-3-yl)-3-(2H-tetrazol-5-yl)benzene-1,2-disulfonamide] | 1.27 nM | 0.148 nM | 0.129 nM | 0.7813 µM | 1.563 µM | 1.563 µM | 0.7813 µM | 0.7813 µM | 1.00 | 
NCc1ncc(-c2cccc(-c3ccc(S(=O)(=O)N[C@@H]4CCNC4)c(S(N)(=O)=O)c3-c3nn[nH]n3)c2)[nH]1 [Example 278, (R)-3′-(2-(aminomethyl)-1H-imidazol-5-yl)-N4-(pyrrolidin-3-yl)-2-(2H-tetrazol-5-yl)-[1,1′-biphenyl]-3,4-disulfonamide] | 0.64 nM | 0.0566 nM |  | 0.7813 µM | 0.7813 µM | 0.7813 µM | 0.7813 µM | 0.7813 µM | 1.00 | 0.144 nM
NCCn1nc2cccc(-c3ccc(S(=O)(=O)N[C@@H]4CCNC4)c(S(N)(=O)=O)c3-c3nn[nH]n3)c2n1 [Example 279, (R)-4-(2-(2-aminoethyl)-2H-benzo[d][1,2,3]triazol-4-yl)-N1-(pyrrolidin-3-yl)-3-(2H-tetrazol-5-yl)benzene-1,2-disulfonamide] | 3.03 nM | 0.232 nM |  | 0.7813 µM | 0.7813 µM | 0.7813 µM | 0.7813 µM | 0.7813 µM | 1.00 | 0.133 nM
CNc1nc2c(-c3ccc(S(=O)(=O)N[C@@H]4CCNC4)c(S(N)(=O)=O)c3-c3nn[nH]n3)cccc2[nH]1 [Example 280, (R)-4-(2-(methylamino)-1H-benzo[d]imidazol-4-yl)-N1-(pyrrolidin-3-yl)-3-(2H-tetrazol-5-yl)benzene-1,2-disulfonamide] | 0.61 nM | 0.0408 nM | 0.158 nM | 0.7813 µM | 1.563 µM | 0.7813 µM | 0.3906 µM | 0.7813 µM | 0.50 | 
Cn1nc2cccc(-c3ccc(S(=O)(=O)N[C@@H]4CCNC4)c(S(N)(=O)=O)c3-c3nn[nH]n3)c2n1 [Example 281, (R)-4-(2-methyl-2H-benzo[d][1,2,3]triazol-4-yl)-N1-(pyrrolidin-3-yl)-3-(2H-tetrazol-5-yl)benzene-1,2-disulfonamide] | 0.75 nM | 0.0166 nM | 0.0515 nM | 1.563 µM | 3.125 µM | 1.563 µM | 3.125 µM | 1.563 µM | 2.00 | 
NS(=O)(=O)c1c(S(=O)(=O)N[C@@H]2CCNC2)ccc(-c2cnc3cc[nH]c3c2)c1-c1nn[nH]n1 [Example 282, (R)-N1-(pyrrolidin-3-yl)-4-(1H-pyrrolo[3,2-b]pyridin-6-yl)-3-(2H-tetrazol-5-yl)benzene-1,2-disulfonamide] | 1.13 nM | 0.0446 nM |  | 0.7813 µM | 1.563 µM | 0.7813 µM | 0.7813 µM | 0.7813 µM | 1.00 | 0.133 nM
NCc1nc2c(-c3ccc(S(=O)(=O)N[C@@H]4CCNC4)c(S(N)(=O)=O)c3-c3nn[nH]n3)cccc2[nH]1 [Example 283, (R)-4-(2-(aminomethyl)-1H-benzo[d]imidazol-4-yl)-N1-(pyrrolidin-3-yl)-3-(2H-tetrazol-5-yl)benzene-1,2-disulfonamide] | 1.2 nM | 0.0721 nM | 0.124 nM | 0.7813 µM | 1.172 µM | 0.6836 µM | 0.7813 µM | 0.7813 µM | 1.00 | 
Cc1ccc(-c2ccc(S(=O)(=O)N[C@@H]3CCNC3)c(S(N)(=O)=O)c2-c2nn[nH]n2)c2nc(N)[nH]c12 [Example 285, (R)-4-(2-amino-7-methyl-1H-benzo[d]imidazol-4-yl)-N1-(pyrrolidin-3-yl)-3-(2H-tetrazol-5-yl)benzene-1,2-disulfonamide] | 0.318 nM | 0.0295 nM |  | 0.7813 µM | 0.7813 µM | 0.7813 µM | 0.3906 µM | 0.3906 µM | 1.00 | 0.0916 nM
Nc1ccc2cccc(-c3ccc(S(=O)(=O)N[C@@H]4CCNC4)c(S(N)(=O)=O)c3-c3nn[nH]n3)c2n1 [Example 286, (R)-4-(2-aminoquinolin-8-yl)-N1-(pyrrolidin-3-yl)-3-(2H-tetrazol-5-yl)benzene-1,2-disulfonamide] | 0.122 nM | 0.0207 nM | 0.0877 nM | 1.953 µM | 1.172 µM | 0.7813 µM | 0.9766 µM | 0.7813 µM | 1.25 | 
